Patent US12678438B2, “Treatment of cancer with CDK inhibitors” (THE TRUSTEES OF THE UNIVERSITY OF PENNSYLVANIA, priority 2019, dated 2026)

Experiments:
Assay type in all cases: cell-based, human
p-MED1 (p-T1457 MED1) = test: Immunoblot of p-MED1 in AR-positive PCa cell lines (VCaP, LNCaP, 22RV1); conditions: LNCaP
Experimental: Cell lysates were prepared with RIPA buffer (Boston Bioproducts, BP-115DG)-10 mM Tris-HCl pH 7.5, 1 mM EDTA, 400 mM NaCl, 0.5% NP-40 and 1 mM DTT, supplemented with protease inhibitor cocktail (Pierce, A32965) and phosphatase inhibitor (Thermo, 1861280). For immunoblotting 200 μg total protein extract was boiled in sample buffer and 15-25 μg aliquots were separated by SDS-PAGE and transferred onto Polyvinylidene Difluoride membrane (GE Healthcare, IPVH00010). The membrane was incubated for one hour in blocking buffer [Tris-buffered saline, 0.1% Tween (TBS-T), 5% nonfat dry milk followed by overnight incubation on a rocker at 4° C. with the primary antibody. Following a wash with TBS-T, the blot was incubated with horseradish peroxidase-conjugated secondary antibody for 2 hrs on a rocker at room temperature. The blots were washed again and signals were visualized using enhanced chemiluminescence system as per manufacturer's protocol (GE Healthcare) or Kwik Quant Imager (Kindle Biosciences). Primary antibodies used in the immunoblotting (IB), immunoprecipitation (IP), and Chromatin Immunoprecipitation sequencing (ChIP-seq) assays are as follows: AR_IP, IB, ChIP-Seq (Millipore, 06-680); pS81-AR_IB (Millipore, 07-1375-EMD); RNA Pol II_IP, IB (Abcam, ab5408); ERG_IB (Abcam, a92513); PSA_IB (Dako, A0562); H3-acetyl K27_IP, IB, ChIP Seq (Abcam, ab32104) cPARP_IB (Cell Signaling Technology, 9541s); Cleaved caspase-3_IB (Cell Signaling Technology, 9664t); CDK7_IP, IB (Cell Signaling Technology, 2916s); CDK9_IP, IB (Cell Signaling Technology, 2316s); CDK12_IB (Cell Signaling Technology, 11973S); CDK13_IB (Sigma Cat. #ABE1860); Cyclin H_IB (Cell Signaling Technology, 2927T); HA_IP, IB (Cell Signaling Technology, 2367s); ERK1/2_IP, IB (Cell Signaling Technology, 9107s); phospho-ERK1/2_IB (Cell Signaling Technology, 9101s); phospho-Threonine_IB (Cell Signaling Technology, 9381s); PP2A alpha_IB (Abcam, ab32104); phospho-MED1_IB (Abcam, ab60950); Anti-GST_IB (Cell Signaling Technology, 2624); Anti-AKT_IB (Cell Signaling Technology, 9272); Anti-phosphoAKT_IB(Cell Signaling Technology, 4060); Anti-phospho-AR (Ser-515) _IB (Abeam, ab128250); Anti-RNA Pol 'LIB (Abeam, ab5408); Anti-phospho-pol II (Ser-5)_IB (Abeam, ab ab5095); Anti-phospho-CDK7 (Tlu-170) _IB (Millipore, ABS567); MED1_IP, IB, ChIP Seq (Bethyl, abA300-793A), Ki67_IHC (Cell Signaling Technology, 9661), and GAPDH (14C10), IB (Cell Signaling Technology, 3683s) for loading control.

[1] = test system: MED1 and AR recruitment to the chromatin; test: ChIP-seq of genome-wide MED1 and AR binding; conditions: VCaP, 10 nM DHT plus 5 μM enzalutamide, 12 h
Experimental: ChIP was performed using iDeal ChIP-seq Kit for Transcription Factors (Diagenode, C01010170) according to manufacturer's protocol. In brief, the cells were crosslinked with 1% formaldehyde in culture medium for 10 min at room temperature. Cross-linking was terminated by the addition of 1/10 volume 1.25 M glycine for 5 min at room temperature followed by cell lysis and sonication (Bioruptor, Diagenode), resulting in an average chromatin fragment size of 200 bp. Chromatin equivalent to 5×10^6 cells was isolated and incubated with 10 μg antibody overnight at 4° C. (MED1, H3-acetyl K27, AR, and IgG (Diagenode). ChIP-seq libraries were prepared from the ChIP-enriched DNA samples using the TruSeq ChIP Library Preparation Kit (Illumina, IP-202-1012, IP-202-1024) and protocol. In brief, ChIP-enriched DNA (1-10 ng) was converted to blunt-ended fragments. A single A-base was added to fragment ends followed by ligation of Illumina adaptors. The adaptor-modified DNA fragments were enriched by PCR using the Illumina Barcode primers and Phusion DNA polymerase. PCR products were size selected using 3% NuSieve agarose gels (Lonza) followed by gel extraction using QIAEX II reagents (QIAGEN). Libraries were quantified with the Bioanalyzer 2100 (Agilent) and sequenced on the Illumina NextSeq 500 Sequencer (75 nucleotide read length).
Sequencing reads were quality checked with FASTQC (www.bioinformatics.babraham.ac.uk/projects/fastqc) and aligned to the GRCh37 (release 27) genome using the STAR v2.5.1 aligner with default settings. PCR duplicate reads in the aligned bam files were removed using samtools, bam files were converted to CPM normalized bigwig tracks using deeptools, and viewed using the Integrated Genomics Viewer or the UCSC genome browser. Single end reads were extended up to the fragment length (200 bp) along the read direction.
The enrichment peaks for the various transcription factors and histone marks were computed using MACS2, with default settings. Regions found to ubiquitously enriched across a number of next-generation sequencing experiments, also known as the blacklisted peaks (sites.google.com/site/anshulkundaje/projects/blacklists), were excluded in all subsequent analysis.

AR target genes = test: qRT-PCR of DHT-induced AR target gene expression; conditions: LNCaP and VCaP, 10 μM enzalutamide
Experimental: For AR signaling stimulation experiments, cells were plated in complete media at required confluency. After 24 h cells were washed with DPBS and cultured in RPMI/DMEM without Phenol Red (Invitrogen, 11835030) and 10% charcoal-dextran stripped FBS (Gemini BioProducts, 100-119) for 72 h. Cells were then stimulated with 10 nM DHT for the specific time points.
Total RNA was isolated from cells using miRNeasy Mini Kit (Qiagen, 74106) and cDNA was synthesized from 1 μg total RNA using SuperScriptIV (Life Technologies, 18090200). qRT-PCR was performed using Fast SYBR Master Mix (Life Technologies, 4385617) or Taqman Fast Advance MMIX (Life Technologies, 4444964), and analyzed on QuantStudio3 (Applied Biosystems, USA). The target mRNA expression was quantified using ΔΔCt method, as normalized to GAPDH transcript levels. Primers were designed using Primer3 Input (version 0.4.0) (bioinfo.ut.ee/primer3-0.4.0/primer3) and synthesized by Integrated DNA Technologies.

[2] = test system: chromatin-bound p-MED1/MED1; test: Chromatin-bound protein extraction and immunoblot; conditions: DHT-stimulated LNCaP, 6 h; THZ1 100 nM, enzalutamide 5 μM
Experimental: Chromatin bound protein extraction was performed following the protocol described in Pawar et al. Briefly, 10 million cells were collected and washed with DPBS, and were resuspended in 250 μl Buffer A (10 mM HEPES pH 7.9, 10 mM KCl, 1.5 mM MgCl2, 0.34 M sucrose, 10% glycerol, 1 mM DTT) supplemented with 0.1% TritonX-100 and incubated on ice for 10 min. The nuclei pellet was collected by centrifugation at 1300×g for 5 min at 4° C., washed in Buffer A and centrifuged again with the same settings. The nuclear pellet was then resuspended in Buffer B (3 mM EDTA, 0.2 mM EGTA, 1 mM DTT) and incubated on ice for 30 min. The chromatin pellet was collected by centrifugation at 1700×g for 5 min at 4° C., washed in Buffer B and centrifuged again with the same settings. The proteins were incubated on ice in Buffer B with 150 mM NaCl for 20 min and centrifuged at 1700×g for 5 min to remove proteins soluble in 150 mM salt concentrations. The pellet was then incubated in Buffer B with 300 mM NaCl on ice for 20 min and centrifuged again at 1700×g to obtain the final chromatin pellet. The chromatin pellet was dissolved in sample buffer, sonicated for 15 seconds, and boiled at 95° C. for 10 min. Samples were analyzed using Immunoblot analysis as described previously. All buffers were supplemented with Pierce protease inhibitor and Halt protease & phosphatase inhibitors.

COc1ccccc1-c1cc(Nc2cccc(CS(N)(=O)=O)c2)ncn1 [LDC]
p-MED1 levels (p-MED1 (p-T1457 MED1); VCaP, 22RV1, standard culture conditions, 24 h (THZ1 and LDC also with DHT stimulation)): no such effect on p-MED1 levels

CNC(=O)c1ccc(N2C(=S)N(c3ccc(C#N)c(C(F)(F)F)c3)C(=O)C2(C)C)cc1F [enzalutamide]
MED1 chromatin association (ChIP-seq) [1]: completely abolished | average ChIP-seq signal for AR [1]: significantly reversed | DHT-induced AR target gene expression (AR target genes): AR target reversal | chromatin-bound levels of p-MED1/MED1 [2]: unable to completely dissociate p-MED1 from the chromatin

CN(C)CCCC(=O)Nc1ccc(C(=O)Nc2cccc(Nc3ncc(Cl)c(-c4c[nH]c5ccccc45)n3)c2)cc1 [THZ1-R]
MED1 phosphorylation (p-MED1 (p-T1457 MED1); 100 nM, 12 h): does not affect MEDI phosphorylation
